Test results from ChEMBL document CHEMBL1201862, “PubChem BioAssay data set” (2004).
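Protocol summary: plate cells (96-well), add compound at 5 concentrations, incubate 48 h, interpolate endpoints linearly. GI50 marks 50% less growth.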 Calls of active or inactive are those of the source. No stated cut-off is given here; in the data, active = GI50 up to about 1.1 µM and inactive = higher.

Assays:
Assay in all cases: inhibition of tumour cell growth, NCI panel, 48 h
DMS-114 = system: DMS-114
HOP-18 = system: HOP-18
KM-20L2 = system: KM-20L2
LXFL 529 = system: LXFL 529
M19-MEL = system: M19-MEL
RXF 631 = system: RXF 631
XF498 = system: XF498

Measured: GI50

CC(=O)O/C=C(/C=C/OC(C)=O)C(C/C=C(\C)C#CC=C(C)C)OC(C)=O (stereo not given)
inactive: DMS-114 19 µM | HOP-18 33.3 µM | KM-20L2 53.1 µM | LXFL 529 19.3 µM | M19-MEL 20.8 µM | RXF 631 > 100 µM | XF498 37.2 µM

Brc1nc2c3ccccc3ncn2c1Br
inactive: DMS-114 33.4 µM | HOP-18 14.4 µM | KM-20L2 28.4 µM | LXFL 529 29.9 µM | M19-MEL 33.5 µM | RXF 631 39.4 µM | XF498 25.8 µM

CC1=C(C(=O)Nc2ccc(Cl)c(Cl)c2)C(c2ccc([N+](=O)[O-])cc2)C(C(=O)Nc2ccc(Cl)c(Cl)c2)=C(C)N1
inactive: DMS-114 2.88 µM | HOP-18 3.6 µM | KM-20L2 1.66 µM | LXFL 529 2.77 µM | M19-MEL 1.82 µM | RXF 631 2.04 µM | XF498 1.44 µM

COc1ccc2c(c1)CCCN2CCCCCCCCCCN(CCC(C)C)CCC(C)C
inactive: DMS-114 4.97 µM | HOP-18 12.1 µM | KM-20L2 10.2 µM | LXFL 529 10.2 µM | M19-MEL 15.3 µM | RXF 631 8.87 µM | XF498 7.89 µM

COc1ccccc1CC(C)N (stereo not given)
inactive: DMS-114 > 100 µM | HOP-18 > 100 µM | KM-20L2 > 100 µM | LXFL 529 > 100 µM | RXF 631 > 100 µM | XF498 > 100 µM

CCOC(=O)C1Nc2ccc([N+](=O)[O-])cc2[C@H]2OCC[C@@H]12 (stereo not given in full)
inactive: DMS-114 > 100 µM | HOP-18 > 100 µM | KM-20L2 > 100 µM | M19-MEL > 100 µM | RXF 631 > 100 µM | XF498 > 100 µM
